What was measured:
Assay in all cases: Cryopreservation success rate after dormancy induction in sugar-supplemented medium
L. sp. Branson = type: in vivo
Experimental: (§1) Lemna minor duckweed plants were cultured on Schenk and Hildebrandt media with 20 mg/ml sucrose at an aerial temperature of between 21° C. and 30° C. and light levels ranging from 200 μM·M^−2·sec^−1 to 450 μM·M^−2·sec^−1 for 1 day up to 1 year. Three frond colonies (each frond colony comprised one or more daughter fronds attached to the mother frond) were aseptically transferred into a 2.0-mL cryovial containing a 900 μL solution of Schenk and Hildebrandt media, […] step. The frond colonies were incubated in this sugar solution for 21-30 days. Each 24-hour photoperiod was comprised of fluctuations in temperature and light levels. Specifically, the daytime hours consisted of culturing the duckweed frond colony at an aerial temperature of 10° C. with a light level of about 25 μM·M^−2·sec^−1 to about 50 μM·M^−2·sec^−1 for a duration of 3 hours, followed by an aerial temperature of 15° C. at a light level of about 25 μM·M^−2·sec^−1 to about 75 μM·M^−2·sec^−1 for a duration of 6 hours, and an aerial temperature of 10° C. with a light level of about 25 μM^−2·sec^−1 to about 50 μM·M^−2·sec^−1 for a duration of 3 hours. During the nighttime hours of the 24-hour photoperiod, the duckweed frond colonies were cultured at an aerial temperature of 4° C. in the absence of light for a duration of 12 hours.
(§2) The duckweed frond colonies were dehydrated in a laminar flow hood in 900 μL of a cryoprotective solution, comprising 1.92 M DMSO, […], 3.26 M glycerol, and 0.4 M sucrose at pH 5.8. The cryovials were incubated in this solution at 4° C. for 30 minutes to 2 hours in the absence of light. Following the incubation, the cryoprotective solution was removed and replaced with 900 μL of fresh cryoprotective solution.
(§3) The duckweed frond colonies were frozen in a slow rate freezer according to the following freezing protocol. The cryovials containing the duckweed frond colonies were held at 4° C. and the temperature was lowered to −4° C. at 1° C. per minute, to −40° C. at 25° C. per minute, and then raised to −12° C. at 10° C. per minute. The temperature was again lowered to −40° C. at 1° C. per minute, to −90° C. at 10° C. per minute, and then lowered to −150° C. at 10° C. per minute. Once frozen, the vials containing the frond colonies were transferred to the vapor phase of liquid nitrogen for storage.
(§4) After up to 17 months in storage, the frozen duckweed frond colonies were thawed and recovered as follows. The vials containing the frozen duckweed frond colonies were transferred from the liquid nitrogen storage tank to a laminar flow hood and were thawed at room temperature for approximately ten minutes. The cryoprotective solution was removed and replaced with 900 μL of Schenk and Hildebrandt medium, supplemented with 1.2 M sucrose, followed by a ten minute incubation at room temperature. The 1.2 M sucrose was subsequently diluted by a series of five dilutions whereby 450 μL of the 1.2 M sucrose solution was removed and replaced with 450 μL of Schenk and Hildebrandt medium supplemented with 20 mg/ml sucrose. Following the serial dilutions, the frond colonies were transferred to a petri dish with Schenk and Hildebrandt medium, supplemented with 10 mg/ml sucrose and 1% (weight/volume) agar. The duckweed frond colonies were cultured at an aerial temperature of between 21° C. and 30° C. with light levels ranging from about 20 μM·M^−2·sec^−1 to about 100 μM·M^−2·sec^−1 for 7-14 days prior to calculating the success rate of the cryopreservation procedure.
(§5) The cryopreservation success rate was calculated by the total number of visible daughter fronds (or daughter fronds with viable tissue) to survive the freezing process and successfully reproduce new daughter fronds as a percentage of the total number of visible daughter fronds that were frozen. Viability of tissue or of daughter fronds was assessed by the presence of green tissue and the ability of these fronds or frond tissues to reproduce and generate new daughter fronds. […]

BAP01-B2-230 line = type: in vivo, Lemna minor
Experimental: (§6) Lemna minor duckweed plants were cultured on Schenk and Hildebrandt media with 20 mg/ml sucrose at an aerial temperature of between 21° C. and 30° C. and light levels ranging from […] for 1 day up to 1 year. Three frond colonies (each frond colony comprised one or more daughter fronds attached to the mother frond) were aseptically transferred into a 2.0-mL cryovial containing a 900 μL solution of Schenk and Hildebrandt media, supplemented with 15 mg/ml of each D-trehalose dihydrate, sucrose, D-sorbitol, D-raffinose pentahydrate, D-glucose, and D-mannitol for the dormancy-induction step. The frond colonies were incubated in this sugar solution for 21-30 days. Each 24-hour photoperiod was comprised of fluctuations in temperature and light levels. Specifically, the daytime hours consisted of culturing the duckweed frond colony at an aerial temperature of 10° C. with a light level of about 25 μM·M^−2·sec^−1 to about 50 μM·M^−2·sec^−1 for a duration of 3 hours, followed by an aerial temperature of 15° C. at a light level of about 25 μM·M^−2·sec^−1 to about 75 μM·M^−2·sec^−1 for a duration of 6 hours, and an aerial temperature of 10° C. with a light level of about 25 μM^−2·sec^−1 to about 50 μM·M^−2·sec^−1 for a duration of 3 hours. During the nighttime hours of the 24-hour photoperiod, the duckweed frond colonies were cultured at an aerial temperature of 4° C. in the absence of light for a duration of 12 hours.
as §2, §3, §4
(§7) The cryopreservation success rate was calculated by the total number of visible daughter fronds (or daughter fronds with viable tissue) to survive the freezing process and successfully reproduce new daughter fronds as a percentage of the total number of visible daughter fronds that were frozen. […]

L. minor = type: in vivo, Lemna minor
Experimental: as §6, §2, §3, §4, §7

Sp. polyrrhiza = type: in vivo, Spirodela polyrrhiza; settings: single sugars 90 mg/ml unless the label says 20 mg/ml, six sugar combo 15 mg/ml each
L. yungensis = type: in vivo, Lemna yungensis; settings: single sugars 90 mg/ml unless the label says 20 mg/ml, six sugar combo 15 mg/ml each
IFN61-B2-101 line = type: in vivo, Lemna minor
Experimental: as §1, §2, §3, §4, §5

[1] = second set of experiments, single sugars 90 mg/ml unless the label says 20 mg/ml, six sugar combo 15 mg/ml each
[2] = sugars at two concentrations: 90 mg/ml (1X) and 270 mg/ml (3X), listed as Sucrose 1X
[3] = sugars at two concentrations: 90 mg/ml (1X) and 270 mg/ml (3X), listed as Sucrose 3X
[4] = various concentrations of six sugar combination: total sugar 90 (1X), 216 (2.4X), 342 mg/ml (3.8X), or 20 mg/ml sucrose

OC[C@H]1O[C@@](CO)(O[C@H]2O[C@H](CO)[C@@H](O)[C@H](O)[C@H]2O)[C@@H](O)[C@@H]1O [Sucrose, sucrose]
Cryopreservation success rate (L. sp. Branson; first set of experiments, single sugars 90 mg/ml unless the label says 20 mg/ml, six sugar combo 15 mg/ml each, in Schenk and Hildebrandt media during dormancy induction): 100% (23/23)
Cryopreservation success rate (L. sp. Branson; first set of experiments, single sugars 90 mg/ml unless the label says 20 mg/ml, six sugar combo 15 mg/ml each, in Schenk and Hildebrandt media during dormancy induction, listed as 20 mg/ml Sucrose): 96% (24/25)
Cryopreservation success rate (L. sp. Branson; [1]): 87.5% (14/16)
Cryopreservation success rate (L. sp. Branson; second set of experiments, single sugars 90 mg/ml unless the label says 20 mg/ml, six sugar combo 15 mg/ml each, listed as 20 mg/ml Sucrose): 88.2% (15/17)
Cryopreservation success rate (L. sp. Branson; [2]): 100% (19/19)
Cryopreservation success rate (L. sp. Branson; [3]): 0% (0/14)
Cryopreservation success rate (L. sp. Branson; [4]): 100% (24/24)
Cryopreservation success rate (BAP01-B2-230 line; [2]): 100% (16/16)
Cryopreservation success rate (BAP01-B2-230 line; [3]): 0% (0/12)
Cryopreservation success rate (BAP01-B2-230 line; [4]): 60.9% (14/23)
Cryopreservation success rate (L. minor; dormancy induction 21-Day, fluctuating temperature and light): 93.75% (30/32)
Cryopreservation success rate (L. minor; first set of experiments, single sugars 90 mg/ml unless the label says 20 mg/ml, six sugar combo 15 mg/ml each): 36.8% (7/19)
Cryopreservation success rate (L. minor; [1]): 91.7% (11/12)
Cryopreservation success, in words (L. minor; summary of Tables 6 and 7): lower cryopreservation success rates
Cryopreservation success rate (Sp. polyrrhiza; first set of experiments): 0% (0/10)
Cryopreservation success rate (Sp. polyrrhiza; first set of experiments, listed as 20 mg/ml Sucrose): 0% (0/14)
Cryopreservation success rate (Sp. polyrrhiza; second set of experiments): 0% (0/12)
Cryopreservation success rate (L. yungensis; first set of experiments): 0%
Cryopreservation success rate (L. yungensis; second set of experiments): 0%
Cryopreservation success rate (IFN61-B2-101 line; [2]): 89.5%
Cryopreservation success rate (IFN61-B2-101 line; [3]): 0%
Cryopreservation success rate (IFN61-B2-101 line; [4]): 100%
